Consider 4 compounds from patent US20070060607A1, “4-amino-thieno[3,2-c] pyridine-7-carboxylic acid derivatives” (priority 2005, published 2007).

In the experiment the target is T1, c-Raf (Homo sapiens, UniProt P04049).
T1 construct: made in house; host or cells: baculovirus Hi5 insect cells, co-expressed with v-src-FLAG
Put plainly: In vitro kinase assay: c-Raf HTRF assay with 6H-MEK as substrate. In kind it is biochemical. Conditions: 6H-MEK substrate, dose response. As for the experimental part: In vitro enzyme activity was determined with c-Raf using a HTRF assay with 6H-MEK as substrate (Dose Response).
The assay utilizes 6H-MEK as the substrate. Upon c-Raf phosphorylation, phosphorylated 6H-MEK is detected with rabbit anti-phospho-MEK1/2, Eu-labeled anti-rabbit, and APC-labeled anti-6H antibodies.
c-Raf enzyme was cloned human c-Raf with EE-tag and was phosphorylated (co-expressed with v-src-FLAG in baculovirus Hi5 cells), 0.2 mg/mL (2.74 μM assuming a molecular weight of 73 kD) and stored at −15° C. Wild-type full-length 6H-MEK was used as substrate, 4.94 mg/mL (154.4 μM assuming a MW of 32 kD) and stored at −15° C.
The following antibodies were used in the detection step: Rabbit α-P-(Ser 217/221)-MEK-1/2 Ab (from Cell Signaling, Cat. # 9121S, Lot 4); Eu-α-rabbit IgG (from Wallac, Cat. # AD0083, Lot 107557, labeling date Jun. 21, 2002, 8 Eu/protein, 580 μg/mL, 3.63 μM); α-6H-SureLight-APC (from Martek, Cat. #AD0059H, Lot E011ABO1, 3.15 μM).
Assays were read with Envision from PerkinElmer, HTRF reading mode with 412 mirrors.
Assays were performed with Costar 384 all-black plates, 120 μL (Cat. # 3710).
Test compounds were dispensed in Weidman 384 polypropylene plates (REMP).
Assay Procedure: • Prepare Kinase Assay Buffer (KAB): 50 mM HEPES (HyClone) pH7, 10 mM MgCl2, 1 mM DTT, 0.1 mM […], and 0.2 mg/mL BSA. • Prepare 6H-MEK (150 nM) in KAB. Add 40 μL/well to a Weidman plate. • Prepare ATP (66 μM) in KAB. • Prepare c-Raf (60 nM) in KAB. Add 25 μL/well to a Weidman plate. • Dilute compounds to 2.4 mM in DMSO. Perform 10-point 3× dilution in DMSO. • Withdraw 2.5 ul/well of DMSO solution and add to 27.5 μL/well ATP solution in (3). • Add 12 μL/well 6H-MEK to the assay plate on the Cybiwell, followed by 6 μL/well of solution in (5) and 6 μL/well of solution in (4) for a DMSO concentration of 2.1% during MEK phosphorylation. • Incubate at 37° C. for 30 minutes. • Prepare rabbit α-P-(Ser 217/221)-MEK-1/2 Ab (1:225 from stock) in AB1: 50 mM HEPES pH7, 0.2 mg/mL BSA, and 53 mM EDTA. • To stop reaction, add 6 μL/well of solution from (8) to the assay plate and incubate at 37° C. for 30 minutes. • Prepare Eu-α-rabbit IgG (9 nM) and α-6H-SureLight-APC (120 nM) in AB2: 50 mM HEPES pH7 and 0.2 mg/mL BSA. • Add 6 μL/well of solution from (10) to the assay plate. • For determining the spectrum cross talk factor, prepare 2 samples following steps (6) to (9). For the blank sample, add 6 μL/well of AB2. For the cross talk factor sample, add 6 μL/well of Eu-anti rabbit IgG (9 nM). • Incubate at 37° C. for 1 hour.
Read HTRF signals at 615 nm and 665 nm on the Envision. Normalize HTRF signals after spectrum cross-talk correction.
In general terms: Time-resolved FRET reads energy transfer from a long-lived donor to a nearby acceptor.

T1 sequence (P04049 whole entry): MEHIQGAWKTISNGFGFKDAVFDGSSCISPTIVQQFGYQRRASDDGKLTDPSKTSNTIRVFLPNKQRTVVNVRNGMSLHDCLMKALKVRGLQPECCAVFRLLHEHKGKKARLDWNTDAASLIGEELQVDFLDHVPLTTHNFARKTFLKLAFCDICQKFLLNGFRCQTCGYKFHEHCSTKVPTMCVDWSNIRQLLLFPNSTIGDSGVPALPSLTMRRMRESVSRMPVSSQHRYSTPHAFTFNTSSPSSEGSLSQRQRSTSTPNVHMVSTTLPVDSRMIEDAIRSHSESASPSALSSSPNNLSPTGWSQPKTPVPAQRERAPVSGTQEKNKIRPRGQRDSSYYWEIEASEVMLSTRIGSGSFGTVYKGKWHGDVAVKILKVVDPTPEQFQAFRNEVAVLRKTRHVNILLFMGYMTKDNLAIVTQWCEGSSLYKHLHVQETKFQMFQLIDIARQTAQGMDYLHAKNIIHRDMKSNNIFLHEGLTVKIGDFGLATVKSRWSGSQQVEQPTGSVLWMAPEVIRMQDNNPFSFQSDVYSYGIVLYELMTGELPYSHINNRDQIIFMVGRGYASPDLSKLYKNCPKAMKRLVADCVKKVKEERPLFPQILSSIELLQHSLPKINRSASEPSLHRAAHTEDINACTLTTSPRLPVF

In turn, `CCOC(=O)c1cnc(N)c2c(COc3cccc(OCc4cccc(OC)c4)c3)csc12` [Example 14, 4-Amino-3-[3-(3-methoxy-benzyloxy)-phenoxymethyl]-thieno[3,2-c]pyridine-7-carboxylic acid ethyl ester] displayed an IC50 of 2020 nM.

As to `CCOC(=O)c1cnc(N)c2c(COc3cccc(OCc4ccccc4)c3)csc12` [Example 2, 4-Amino-3-(3-benzyloxy-phenoxymethyl)-thieno[3,2-c]pyridine-7-carboxylic acid ethyl ester], the IC50 worked out at 836 nM.

`CCOC(=O)c1cnc(N)c2c(COc3cccc(OCc4ccc(OC)c(C(F)(F)F)c4)c3)csc12` [Example 18, 4-Amino-3-[3-(4-methoxy-3-trifluoromethyl-benzyloxy)-phenoxymethyl]-thieno[3,2-c]pyridine-7-carboxylic acid ethyl ester] came in with an IC50 of 324 nM. The value for `Nc1ncc(C(=O)NCCO)c2scc(COc3cccc(OCc4cccc(Cl)c4)c3)c12` [Example 7, 4-Amino-3-[3-(3-chloro-benzyloxy)-phenoxymethyl]-thieno[3,2-c]pyridine-7-carboxylic acid (2-hydroxy-ethyl)-amide] was 22 nM.

Broadly, the IC50 is the concentration at which inhibition is half-maximal. Higher therefore signals lower potency.
